In patent US20190292179A1 (BRISTOL-MYERS SQUIBB COMPANY, priority 2016, published 2019) one finds IC50 data, which are given here for 29 molecules.

Test [1] has as its target HIS-TGFβR2 WT (Homo sapiens, UniProt P37173). As to the kind of experiment: HTRF probe-displacement assay with HIS-TGFβR2 WT. It is filed as binding. The conditions noted are these: 1 nM HIS-TGFβR2 WT, labeled probe at Kd, 1 hour at room temperature. Here is the method:
(§1) The reaction is incubated for 1 hour at room temperature and the HTRF signal was measured on an Envision plate reader (Ex: 340 nm; Em: 520 nm/495 nm). Inhibition data were calculated by comparison to no enzyme control reactions for 100% inhibition and vehicle-only reactions for 0% inhibition. The final concentration of reagents in the assay are 1 nM HIS-TGFβR1 T204D or HIS-TGFβR2 WT, 0.2 nM anti-HIS detection antibody, labeled small molecule probe (at Kd) and 0.5% DMSO. Dose response curves were generated to determine the concentration required inhibiting 50% of kinase activity (IC50). Compounds were dissolved at 10 mM in dimethylsulfoxide (DMSO) and evaluated at eleven concentrations. IC50 values were derived by non-linear regression analysis.
A general note: TR-FRET usually uses a lanthanide donor and a delayed reading to cut background.

The target in test [2] is T1, HIS-TGFβR1 T204D (Homo sapiens, UniProt P36897, T204D).
T1 sequence (P36897 34-503 T204D): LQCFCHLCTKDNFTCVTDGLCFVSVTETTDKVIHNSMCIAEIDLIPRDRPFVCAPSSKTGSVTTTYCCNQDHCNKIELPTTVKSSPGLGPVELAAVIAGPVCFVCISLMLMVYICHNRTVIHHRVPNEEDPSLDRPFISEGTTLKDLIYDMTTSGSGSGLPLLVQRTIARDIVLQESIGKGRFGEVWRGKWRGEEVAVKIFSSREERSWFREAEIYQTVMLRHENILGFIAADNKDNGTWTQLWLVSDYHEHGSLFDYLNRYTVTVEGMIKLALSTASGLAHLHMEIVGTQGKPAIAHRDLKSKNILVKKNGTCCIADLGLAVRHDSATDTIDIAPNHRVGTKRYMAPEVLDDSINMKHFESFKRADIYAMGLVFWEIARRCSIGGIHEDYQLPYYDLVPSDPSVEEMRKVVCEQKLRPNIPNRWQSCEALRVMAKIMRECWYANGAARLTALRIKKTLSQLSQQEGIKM
As to the kind of experiment: HTRF probe-displacement assay with HIS-TGFβR1 T204D. It is filed as binding. The conditions noted are these: 1 nM HIS-TGFβR1 T204D, labeled probe at Kd, 1 hour at room temperature. Here is the method:
as §1

Where a name gives a salt, the structure may show the parent alone.

Sequence of HIS-TGFβR2 WT (P37173 23-567): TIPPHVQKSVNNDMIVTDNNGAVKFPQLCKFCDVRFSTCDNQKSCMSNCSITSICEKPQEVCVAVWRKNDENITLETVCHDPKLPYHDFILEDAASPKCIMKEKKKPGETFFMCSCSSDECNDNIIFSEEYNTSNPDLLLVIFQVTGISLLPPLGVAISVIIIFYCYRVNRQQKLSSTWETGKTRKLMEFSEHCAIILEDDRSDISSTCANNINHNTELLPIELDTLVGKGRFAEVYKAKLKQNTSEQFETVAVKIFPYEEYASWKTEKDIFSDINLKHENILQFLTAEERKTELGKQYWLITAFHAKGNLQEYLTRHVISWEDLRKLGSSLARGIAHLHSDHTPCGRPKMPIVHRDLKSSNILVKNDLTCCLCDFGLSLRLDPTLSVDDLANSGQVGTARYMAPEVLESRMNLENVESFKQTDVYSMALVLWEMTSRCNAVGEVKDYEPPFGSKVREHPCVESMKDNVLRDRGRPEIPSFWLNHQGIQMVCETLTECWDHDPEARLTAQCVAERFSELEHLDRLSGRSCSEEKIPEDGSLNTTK

For the molecule `N#Cc1cnc2ccc(-c3cn(CCO)nc3-c3ccc(F)c(Cl)c3)cn12` [Example 44, 6-(3-(3-chloro-4-fluorophenyl)-1-(2-hydroxyethyl)-1H-pyrazol-4-yl)imidazo[1,2-a]pyridine-3-carbonitrile], the IC50 (as a rule, the midpoint of a concentration-inhibition curve) in test [1] came out at 0.369 µM; in test [2], 0.002 µM.

As to `CC(=O)Nc1cc(-c2c(-c3ccc(F)cc3)nn3c2COCC3)ccn1` [Example 112, N-(4-(2-(4-fluorophenyl)-6,7-dihydro-4H-pyrazolo[5,1-c][1,4]oxazin-3-yl)pyridin-2-yl)acetamide], the IC50 worked out at 0.105 µM in test [1] and 0.011 µM in test [2].

`Cc1cc(-c2n[nH]cc2-c2ccc3nccn3c2)ccc1F` [Example 48, 6-(3-(4-fluoro-3-methylphenyl)-1H-pyrazol-4-yl)imidazo[1,2-a]pyridine]: the IC50 was found to be 4.12 µM in test [1] and 0.002 µM in test [2].

`CCOC(=O)c1cnc2ccc(-c3cn(C)nc3-c3cccc(C)n3)cn12` [Example 51, ethyl 6-(1-methyl-3-(6-methylpyridin-2-yl)-1H-pyrazol-4-yl)imidazo[1,2-a]pyridine-3-carboxylate]: the IC50 in test [1] was found to be 2.23 µM; in test [2], 0.001 µM.

With `Cc1cccc(-c2n[nH]c(C3CC3)c2-c2ccc3ncc(C(N)=O)n3c2)n1` [Example 122, 6-(5-cyclopropyl-3-(6-methylpyridin-2-yl)-1H-pyrazol-4-yl)imidazo[1,2-a]pyridine-3-carboxamide], the IC50 in test [1] came to 0.004 µM; in test [2] it was 0.001 µM.

`CCc1[nH]nc(-c2cccc(C)n2)c1-c1ccc2ncc(C#N)n2c1` [Example 124, 6-(5-ethyl-3-(6-methylpyridin-2-yl)-1H-pyrazol-4-yl)imidazo[1,2-a]pyridine-3-carbonitrile]: the IC50 stood at 2.06 µM in test [1] and 0.001 µM in test [2].

Take `Cc1cc(-c2n[nH]c(C(C)C)c2-c2ccc3ncc(C#N)n3c2)ccc1F` [Example 78, 6-(3-(4-fluoro-3-methylphenyl)-5-isopropyl-1H-pyrazol-4-yl)imidazo[1,2-a]pyridine-3-carbonitrile]: the IC50 in test [1] worked out at 6.67 µM; in test [2] it was 0.001 µM.

For `N#Cc1cnc2ccc(-c3cn(CC(F)F)nc3-c3ccc(F)c(Cl)c3)cn12` [Example 61, 6-(3-(3-chloro-4-fluorophenyl)-1-(2,2-difluoroethyl)-1H-pyrazol-4-yl)imidazo[1,2-a]pyridine-3-carbonitrile], the IC50 in test [1] is 2.28 µM; in test [2], 0.007 µM.

In the case of `Fc1ccc(-c2n[nH]c(C3CC3)c2-c2ccc3nccn3n2)cc1` [Example 87, 6-(5-cyclopropyl-3-(4-fluorophenyl)-1H-pyrazol-4-yl)imidazo [1,2-b]pyridazine], the IC50 in test [1] came to 6.9 µM; in test [2], 0.002 µM.

`Fc1ccc(-c2n[nH]cc2-c2cc(F)c3nccn3c2)cc1` [Example 30, 8-fluoro-6-(3-(4-fluorophenyl)-1H-pyrazol-4-yl)imidazo[1,2-a]pyridine]: the IC50 in test [1] is 10.3 µM; in test [2], 0.591 µM.

As to `Cc1cc(-c2n[nH]c(C3CC3)c2-c2ccc3ncc(C(N)=O)n3c2)ccc1F` [Example 100, 6-(5-cyclopropyl-3-(4-fluoro-3-methylphenyl)-1H-pyrazol-4-yl)imidazo[1,2-a]pyridine-3-carboxamide], the IC50 worked out at 0.094 µM in test [1] and 0.001 µM in test [2].

On to `NC(=O)c1cnc2ccc(-c3c(-c4ccc(F)cc4)nn4c3COCC4)cn12` [Example 111, 6-(2-(4-fluorophenyl)-6,7-dihydro-4H-pyrazolo[5,1-c][1,4]oxazin-3-yl)imidazo[1,2-a]pyridine-3-carboxamide], for which the values for the IC50 in test [1] and in test [2] were 0.577 µM and 0.002 µM, respectively.

Turning to `CC(C)c1[nH]nc(-c2ccc(F)cc2)c1-c1ccc2ncc(C#N)n2c1` [Example 67, 6-(3-(4-fluorophenyl)-5-isopropyl-1H-pyrazol-4-yl)imidazo[1,2-a]pyridine-3-carbonitrile], the IC50 in test [1] is 11.1 µM; in test [2], 0.004 µM.

Take `CCc1[nH]nc(-c2cccc(C)n2)c1-c1ccc2nccn2c1` [Example 126, 6-(5-ethyl-3-(6-methylpyridin-2-yl)-1H-pyrazol-4-yl)imidazo[1,2-a]pyridine]: the IC50 amounted to 3.15 µM in test [1] and 0.001 µM in test [2].

Turning to `N#CCn1cc(-c2ccc3ncc(C#N)n3c2)c(-c2ccc(F)c(Cl)c2)n1` [Example 43, 6-(3-(3-chloro-4-fluorophenyl)-1-(cyanomethyl)-1H-pyrazol-4-yl)imidazo[1,2-a]pyridine-3-carbonitrile], the IC50 in test [1] amounted to 0.463 µM; in test [2], 0.001 µM.

For the molecule `CC(C)c1[nH]nc(-c2ccc(Cl)cc2)c1-c1ccc2ncc(C(N)=O)n2c1` [Example 76, 6-(3-(4-chlorophenyl)-5-isopropyl-1H-pyrazol-4-yl)imidazo[1,2-a]pyridine-3-carboxamide], the IC50 in test [1] was determined as 6.59 µM; in test [2], 0.001 µM.

On to `CC(C)c1[nH]nc(-c2ccc(F)cc2)c1-c1ccc2ncc(C(N)=O)n2c1` [Example 68, 6-(3-(4-fluorophenyl)-5-isopropyl-1H-pyrazol-4-yl) imidazo [1,2-a]pyridine-3-carboxamide], for which the values for the IC50 in test [1] and in test [2] were 0.176 µM and 0.001 µM, respectively.

In the case of `Cc1cccc(-c2nn(C)c(C(C)C)c2-c2ccc3nccn3c2)n1` [Example 119, 6-(5-isopropyl-1-methyl-3-(6-methylpyridin-2-yl)-1H-pyrazol-4-yl)imidazo[1,2-a]pyridine], the IC50 came out at 4.95 µM in test [1] and 0.003 µM in test [2].

In the case of `Cc1cccc(-c2nn(CC(F)F)cc2-c2ccc3ncc(C#N)n3c2)n1` [Example 27, 6-(1-(2,2-difluoroethyl)-3-(6-methylpyridin-2-yl)-1H-pyrazol-4-yl)imidazo[1,2-a]pyridine-3-carbonitrile], the IC50 is 11.4 µM in test [1] and 0.003 µM in test [2].

With `Cc1cccc(-c2n[nH]c(C)c2-c2ccc3ncc(C(N)=O)n3c2)n1` [Example 64, 6-(5-methyl-3-(6-methylpyridin-2-yl)-1H-pyrazol-4-yl)imidazo[1,2-a]pyridine-3-carboxamide], the IC50 in test [1] was 0.012 µM; in test [2], 0.001 µM.

Consider `NC(=O)c1cnc2ccc(-c3c[nH]nc3-c3ccc(F)c(Cl)c3)cn12` [Example 42, 6-(3-(3-chloro-4-fluorophenyl)-1H-pyrazol-4-yl)imidazo[1,2-a]pyridine-3-carboxamide, TFA], for which the figures for the IC50 in test [1] and in test [2] were 0.33 µM and 0.001 µM, respectively.

Turning to `Cn1cc(-c2ccc3ncc(C#N)n3c2)c(-c2ccc(F)cc2)n1` [Example 37, 6-(3-(4-fluorophenyl)-1-methyl-1H-pyrazol-4-yl)imidazo[1,2-a]pyridine-3-carbonitrile], the IC50 was found to be 0.165 µM in test [1] and 0.042 µM in test [2].

Regarding `N#Cc1cnc2ccc(-c3c(-c4ccc(F)cc4)n[nH]c3C3CC3)cn12` [Example 84, 6-(5-cyclopropyl-3-(4-fluorophenyl)-1H-pyrazol-4-yl)imidazo[1,2-a]pyridine-3-carbonitrile], the IC50 in test [1] stood at 2.68 µM; in test [2], 0.003 µM.

As for `Cc1cccc(-c2n[nH]c(CO)c2-c2ccc3nccn3c2)n1` [Example 141, (4-(imidazo[1,2-a]pyridin-6-yl)-3-(6-methylpyridin-2-yl)-1H-pyrazol-5-yl)methanol], the results for the IC50 in test [1] and in test [2] were 4.47 µM and 0.001 µM, respectively.

Turning to `N#Cc1cnc2ccc(-c3c[nH]nc3-c3ccc(F)cc3)cn12` [Example 35, 6-(3-(4-fluorophenyl)-1H-pyrazol-4-yl)imidazo[1,2-a]pyridine-3-carbonitrile], the results for the IC50 in test [1] and in test [2] were 0.221 µM and 0.011 µM, respectively.

With `Cc1cccc(-c2c(-c3ccc4ncc(C#N)n4c3)cnn2C2CC2)n1` [Example 22, 6-(1-cyclopropyl-5-(6-methylpyridin-2-yl)-1H-pyrazol-4-yl)imidazo[1,2-a]pyridine-3-carbonitrile], the IC50 in test [1] was 7.55 µM; in test [2], 0.035 µM.

For `Cc1cccc(-c2nn(C)cc2-c2ccc3ncc(C#N)n3c2)n1` [Example 23, 6-(1-methyl-3-(6-methylpyridin-2-yl)-1H-pyrazol-4-yl)imidazo[1,2-a]pyridine-3-carbonitrile], the figures for the IC50 in test [1] and in test [2] were 2.48 µM and 0.001 µM, respectively.

For `Cc1cccc(-c2n[nH]cc2-c2ccc3ncc(C#N)n3n2)n1` [Example 20, 6-(3-(6-methylpyridin-2-yl)-1H-pyrazol-4-yl)imidazo[1,2-b]pyridazine-3-carbonitrile], the IC50 was 1.45 µM in test [1] and 0.001 µM in test [2].

Regarding `Fc1ccc(-c2n[nH]cc2-c2ccc3nncn3c2)cc1` [Example 31, 6-(3-(4-fluorophenyl)-1H-pyrazol-4-yl)-[1,2,4]triazolo[4,3-a]pyridine, TFA], the IC50 in test [1] is 9.17 µM; in test [2] it was 0.112 µM.
